In PubChem BioAssay (NCI):
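Dose response: 5 concentrations. Exposure: 48 h. Format: 96-well plates. Endpoint: linear interpolation; highest concentration if not reached. Here, GI50 denotes the concentration required for 50% inhibition of growth. TGI: total growth inhibition.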

Tests used:
Assay in all cases: DTP human tumour cell line panel, 48 h
786-0 renal = system: 786-0 renal
A498 renal = system: A498 renal
A549 NSCLC = system: A549 NSCLC
ACHN renal = system: ACHN renal
BT-549 breast = system: BT-549 breast
CAKI-1 renal = system: CAKI-1 renal
CCRF-CEM leukemia = system: CCRF-CEM leukemia
COLO 205 colon = system: COLO 205 colon
DU-145 prostate = system: DU-145 prostate
EKVX NSCLC = system: EKVX NSCLC
HCC-2998 colon = system: HCC-2998 colon
HCT-116 colon = system: HCT-116 colon
HCT-15 colon = system: HCT-15 colon
HL-60(TB) leukemia = system: HL-60(TB) leukemia
HOP-62 NSCLC = system: HOP-62 NSCLC
HS 578T breast = system: HS 578T breast
HT29 colon = system: HT29 colon
IGROV1 ovarian = system: IGROV1 ovarian
K-562 leukemia = system: K-562 leukemia
KM12 colon = system: KM12 colon
LOX IMVI melanoma = system: LOX IMVI melanoma
M14 melanoma = system: M14 melanoma
MALME-3M melanoma = system: MALME-3M melanoma
MCF7 breast = system: MCF7 breast
MDA-MB-231 breast = system: MDA-MB-231 breast
MDA-MB-435 = system: MDA-MB-435
MOLT-4 leukemia = system: MOLT-4 leukemia
NCI-H226 lung = system: NCI-H226 lung
NCI-H23 lung = system: NCI-H23 lung
NCI-H460 lung = system: NCI-H460 lung
NCI-H522 lung = system: NCI-H522 lung
NCI/ADR-RES ovarian = system: NCI/ADR-RES ovarian
OVCAR-3 ovarian = system: OVCAR-3 ovarian
OVCAR-4 ovarian = system: OVCAR-4 ovarian
OVCAR-5 ovarian = system: OVCAR-5 ovarian
OVCAR-8 ovarian = system: OVCAR-8 ovarian
PC-3 prostate = system: PC-3 prostate
RXF 393 renal = system: RXF 393 renal
SF-268 CNS = system: SF-268 CNS
SF-295 CNS = system: SF-295 CNS
SF-539 CNS = system: SF-539 CNS
SK-MEL-2 melanoma = system: SK-MEL-2 melanoma
SK-MEL-28 melanoma = system: SK-MEL-28 melanoma
SK-MEL-5 melanoma = system: SK-MEL-5 melanoma
SK-OV-3 ovarian = system: SK-OV-3 ovarian
SN12C renal = system: SN12C renal
SNB-19 CNS = system: SNB-19 CNS
SNB-75 CNS = system: SNB-75 CNS
SR leukemia = system: SR leukemia
SW-620 colon = system: SW-620 colon
T-47D breast = system: T-47D breast
TK-10 renal = system: TK-10 renal
U251 CNS = system: U251 CNS
UACC-257 melanoma = system: UACC-257 melanoma
UACC-62 melanoma = system: UACC-62 melanoma
UO-31 renal = system: UO-31 renal

## Oc1ccc(/C=C/c2ccc(O)cc2)cc1
786-0 renal
  GI50: 2170 nM
  TGI: 7.93 µM
A498 renal
  GI50: 10.3 µM
  TGI: 99.6 µM
A549 NSCLC
  GI50: 2690 nM
  TGI: > 38.5 µM
ACHN renal
  GI50: 1250 nM
  TGI: > 61.7 µM
BT-549 breast
  GI50: 1260 nM
  TGI: > 90 µM
CAKI-1 renal
  GI50: 3.5 µM
  TGI: > 24.1 µM
CCRF-CEM leukemia
  GI50: 219 nM
  TGI: 761 nM
COLO 205 colon
  GI50: > 55.1 µM
  TGI: > 100 µM
DU-145 prostate
  GI50: 3.84 µM
  TGI: 44 µM
EKVX NSCLC
  GI50: 9.15 µM
  TGI: > 100 µM
HCC-2998 colon
  GI50: 3.59 µM
  TGI: 18 µM
HCT-116 colon
  GI50: 4.28 µM
  TGI: > 100 µM
HCT-15 colon
  GI50: 3.13 µM
  TGI: > 100 µM
HL-60(TB) leukemia
  GI50: 252 nM
  TGI: 738 nM
HOP-62 NSCLC
  GI50: 5.59 µM
  TGI: > 96.5 µM
HS 578T breast
  GI50: 4.09 µM
  TGI: > 83.9 µM
HT29 colon
  GI50: 29 µM
  TGI: > 100 µM
IGROV1 ovarian
  GI50: 720 nM
K-562 leukemia
  GI50: 2650 nM
  TGI: > 100 µM
KM12 colon
  GI50: 2730 nM
  TGI: > 80.7 µM
LOX IMVI melanoma
  GI50: 2850 nM
  TGI: 20.4 µM
M14 melanoma
  GI50: 3.82 µM
  TGI: 58.9 µM
MALME-3M melanoma
  GI50: 18.1 µM
  TGI: > 100 µM
MCF7 breast
  GI50: 4.41 µM
  TGI: > 100 µM
MDA-MB-231 breast
  GI50: 2780 nM
  TGI: > 100 µM
MDA-MB-435
  GI50: 6.64 µM
  TGI: > 100 µM
MOLT-4 leukemia
  GI50: 2180 nM
  TGI: 45.1 µM
NCI-H226 lung
  GI50: 5.63 µM
  TGI: > 100 µM
NCI-H23 lung
  GI50: 3.82 µM
  TGI: > 90.5 µM
NCI-H460 lung
  GI50: 3.37 µM
  TGI: > 100 µM
NCI-H522 lung
  GI50: 465 nM
  TGI: 1710 nM
NCI/ADR-RES ovarian
  GI50: 3.25 µM
  TGI: > 95.4 µM
OVCAR-3 ovarian
  GI50: 971 nM
  TGI: > 92.1 µM
OVCAR-4 ovarian
  GI50: 8.78 µM
  TGI: > 100 µM
OVCAR-5 ovarian
  GI50: 28.9 µM
  TGI: > 100 µM
OVCAR-8 ovarian
  GI50: 2440 nM
  TGI: > 61.1 µM
PC-3 prostate
  GI50: 4.02 µM
  TGI: > 100 µM
RXF 393 renal
  GI50: 2940 nM
  TGI: > 100 µM
SF-268 CNS
  GI50: 2150 nM
  TGI: > 94.7 µM
SF-295 CNS
  GI50: 5.91 µM
  TGI: > 84.7 µM
SF-539 CNS
  GI50: 2450 nM
  TGI: 8.8 µM
SK-MEL-2 melanoma
  GI50: 9.79 µM
  TGI: > 89.2 µM
SK-MEL-28 melanoma
  GI50: 30.1 µM
  TGI: > 100 µM
SK-MEL-5 melanoma
  GI50: 3.04 µM
  TGI: > 68.3 µM
SK-OV-3 ovarian
  GI50: 16.1 µM
  TGI: > 100 µM
SN12C renal
  GI50: 2970 nM
  TGI: > 100 µM
SNB-19 CNS
  GI50: 18.2 µM
  TGI: > 100 µM
SNB-75 CNS
  GI50: 1890 nM
  TGI: > 100 µM
SR leukemia
  GI50: 204 nM
  TGI: 703 nM
SW-620 colon
  GI50: 7.52 µM
  TGI: > 100 µM
T-47D breast
  GI50: 5.7 µM
  TGI: > 100 µM
TK-10 renal
  GI50: 9.62 µM
  TGI: > 100 µM
U251 CNS
  GI50: 3.09 µM
  TGI: > 100 µM
UACC-257 melanoma
  GI50: 18.6 µM
  TGI: > 100 µM
UACC-62 melanoma
  GI50: 2360 nM
  TGI: 16.9 µM
UO-31 renal
  GI50: 1380 nM
  TGI: > 100 µM
